The values that follow come from BindingDB's records for doi:10.1016/s0960-894x(01)00378-x (The R. W. Johnson Pharmaceutical Research Institute, 2001).

Experiment [1] concerns the target T1, Proteinase-activated receptor 1 (Homo sapiens, UniProt P25116).
T1 sequence (P25116 whole entry): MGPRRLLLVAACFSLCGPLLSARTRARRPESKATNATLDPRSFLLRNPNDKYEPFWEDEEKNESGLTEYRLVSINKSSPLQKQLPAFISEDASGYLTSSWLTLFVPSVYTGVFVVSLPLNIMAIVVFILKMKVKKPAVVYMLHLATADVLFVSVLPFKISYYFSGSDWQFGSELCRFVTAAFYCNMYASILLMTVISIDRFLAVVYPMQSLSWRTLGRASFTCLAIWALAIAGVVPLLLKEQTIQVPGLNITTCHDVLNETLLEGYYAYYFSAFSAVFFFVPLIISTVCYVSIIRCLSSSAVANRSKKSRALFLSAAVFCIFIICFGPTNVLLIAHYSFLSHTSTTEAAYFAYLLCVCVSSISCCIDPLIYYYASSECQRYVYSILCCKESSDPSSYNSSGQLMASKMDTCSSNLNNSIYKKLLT
As to the kind of experiment: In vitro inhibition of human platelet aggregation induced by SFLLRN-NH2 (at a concentration of 2 uM).

A short description of experiment [2]: In vitro inhibition of human platelet aggregation induced by alpha-thrombin (at a concentration of 0.15 nM).
Experiment [3] in a line: In vitro inhibition of human platelet aggregation induced by SFLLRN-NH2 (at a concentration of 2 uM).
Experiment [4] has as its target T1, Proteinase-activated receptor 1. In words: In vitro inhibition of human platelet aggregation induced by alpha-thrombin (at a concentration of 0.15 nM).

Compound `Cc1ccccc1Cn1cc(CN2CCCC2)c2ccc(NC(=O)NC(Cc3ccc([N+](=O)[O-])cc3)C(=O)NC(CCCNC(=N)N)C(=O)NCc3ccccc3)cc21` [(S)-5-Guanidino-2-[(S)-2-{3-[1-(2-methyl-benzyl)-3-pyrrolidin-1-ylmethyl-1H-indol-6-yl]-ureido}-3-(4-nitro-phenyl)-propionylamino]-pentanoic acid benzylamide] displayed an IC50 in experiment [1] of 150 nM.

`COC(=O)c1ccc(Cn2cc(CN3CCCC3)c3ccc(NC(=O)N[C@@H](Cc4ccc(OC)cc4)C(=O)N[C@@H](CCCNC(=N)N)C(=O)NCC4CCCCC4)cc32)cc1` [4-(6-{3-[(S)-1-[(S)-1-(Cyclohexylmethyl-carbamoyl)-4-guanidino-butylcarbamoyl]-2-(4-methoxy-phenyl)-ethyl]-ureido}-3-pyrrolidin-1-ylmethyl-indol-1-ylmethyl)-benzoic acid methyl ester]: the midpoint of inhibition in experiment [2], the IC50, lay at 38700 nM. Still for that read-out and setting: the figure for `N=C(N)NCCC[C@H](NC(=O)[C@H](Cc1ccc(F)c(F)c1)NC(=O)Nc1ccc2c(CN3CCCC3)cn(Cc3c(Cl)cccc3Cl)c2c1)C(=O)NCc1ccccc1` [(S)-2-[(S)-2-{3-[1-(2,6-Dichloro-benzyl)-3-pyrrolidin-1-ylmethyl-1H-indol-6-yl]-ureido}-3-(3,4-difluoro-phenyl)-propionylamino]-5-guanidino-pentanoic acid benzylamide] is 570 nM.

On to `CCN(CC)Cc1cn(Cc2ccccc2C)c2cc(NC(=O)N[C@@H](Cc3ccc(OC)cc3)C(=O)N[C@@H](CCCNC(=N)N)C(=O)NCCCc3ccccc3)ccc12` [(S)-2-[(S)-2-{3-[3-Diethylaminomethyl-1-(2-methyl-benzyl)-1H-indol-6-yl]-ureido}-3-(4-methoxy-phenyl)-propionylamino]-5-guanidino-pentanoic acid (3-phenyl-propyl)-amide], for which the IC50 in experiment [2] is 3000 nM; in experiment [3], 230 nM. On to `NC(N)=NCCCC(NC(=O)C(Cc1ccc([N+](=O)[O-])cc1)NC(=O)Nc1ccc2c(CN3CCCC3)cn(Cc3ccc(F)cc3)c2c1)C(=O)NCc1ccccc1` [(S)-2-[(S)-2-{3-[1-(4-Fluoro-benzyl)-3-pyrrolidin-1-ylmethyl-1H-indol-6-yl]-ureido}-3-(4-nitro-phenyl)-propionylamino]-5-guanidino-pentanoic acid benzylamide], for which the half-inhibitory concentration (IC50) amounted to 130 nM in experiment [1] and 6100 nM in experiment [4]. The compound `COc1ccc(C[C@H](NC(=O)Nc2ccc3c(CN4CCCC4)cn(Cc4c(Cl)cccc4Cl)c3c2)C(=O)N[C@@H](CCCN=C(N)N)C(=O)NCc2ccccc2)cc1` [RWJ-54003] displayed an IC50 in experiment [4] of 900 nM. With `O=C(Nc1ccc2c(CN3CCCC3)cn(Cc3c(Cl)cccc3Cl)c2c1)N[C@@H](Cc1ccc(F)c(F)c1)C(=O)NC(Cc1cnc[nH]1)C(=O)NCc1ccccc1` (stereo partly drawn) [(S)-N-[1-Benzylcarbamoyl-2-(3H-imidazol-4-yl)-ethyl]-2-{3-[1-(2,6-dichloro-benzyl)-3-pyrrolidin-1-ylmethyl-1H-indol-6-yl]-ureido}-3-(3,4-difluoro-phenyl)-propionamide], the half-inhibitory concentration (IC50) turned out to be 460 nM in experiment [2] and 200 nM in experiment [3].

`NCCCC[C@H](NC(=O)[C@H](Cc1ccc(F)c(F)c1)NC(=O)Nc1ccc2c(CN3CCCC3)cn(Cc3c(Cl)cccc3Cl)c2c1)C(=O)NCc1ccccc1` [(S)-6-Amino-2-[(S)-2-{3-[1-(2,6-dichloro-benzyl)-3-pyrrolidin-1-ylmethyl-1H-indol-6-yl]-ureido}-3-(3,4-difluoro-phenyl)-propionylamino]-hexanoic acid benzylamide]: the IC50 in experiment [2] is 700 nM; in experiment [3], 100 nM.
